From patent publication US7122668B2, “Platinum complexes and their use in therapy” (priority 2002, dated 2006)

What was measured:
41McisR = assay: Microculture tetrazolium (MTS) cell survival assay; assay type: cell-based
Method: (§1) Cytotoxicity of the synthesized complexes was also tested by the MTS method^(21). Accordingly, the compounds were incubated for 24 hours with the corresponding cell lines and the cell survival in compound-treated cultures was evaluated.
(§2) The complexes were incubated for 24 hours with the above mentioned cell lines and the cell survival in compound-treated cultures was evaluated by the (microculture tetrazolium) MTS method as previously reported.

41M = assay: Microculture tetrazolium (MTS) cell survival assay; assay type: cell-based; settings: 24 hours incubation
Method: as §1, §2

A2780cisR = assay: Microculture tetrazolium (MTS) cell survival assay; assay type: cell-based
Method: as §1, §2

A2780 = assay: Microculture tetrazolium (MTS) cell survival assay; assay type: cell-based; settings: 24 hours incubation
Method: as §1, §2

CH1cisR = assay: Microculture tetrazolium (MTS) cell survival assay; assay type: cell-based
Method: as §1, §2

CH1 = assay: Microculture tetrazolium (MTS) cell survival assay; assay type: cell-based; settings: 24 hours incubation
Method: as §1, §2

C-26 cells [1] = assay: Determination of Pt-DNA adducts by FAAS; assay type: cell-based, human
Method: (§3) Cells were seeded for 48 hr before one of the drugs was added to the culture medium. After 24 hr of exposure, the complexes were removed and the cells washed twice with ice-cold PBS and pelleted. DNA from platinum-containing material (2*10^6 cells) was extracted from the cell pellet by QIAamp DNA Blood Kit (QIAGEN, Germany) according to the manufacture instructions. DNA yield was determined by measuring the concentration of DNA in the eluate by absorbance at 260 nm.

OV-1063 cells [2] = assay: Determination of Pt-DNA adducts by FAAS; assay type: cell-based, human
Method: as §3

calf thymus DNA = assay: DNA binding (calf thymus DNA platination)
Method: The formation of calf thymus DNA platination was also examined. To this end, calf thymus DNA was incubated with different compounds (Table 3) in which the following parameters were determined: […]

caspase-3 in C-26 cells = assay: EnzChek Caspase-3 assay; assay type: cell-based, human; settings: 4.5 μM complex, cisplatin 1.5 μM, 5 or 16 hrs
From the text: (§4) (2) By the EnzChektm Caspase-3 Assay Kit (Molecular probes, Eugene, Oreg.). This Kit allows the detection of apoptosis by assaying for increases in caspase-3 and other DEVD-specific protease activities (e.g., caspase-7). The basis for the assay is rodamine 110 bis-(N-CBZ-aspartil-L-glutarnyl-L-valyl-aspartic acid amide) (Z-DEVD-R110). This substrate is a bisamide derivative of rhodamine 110(R110) containing DEVD peptides covalently linked to each of R110's amino groups. Upon enzymatic cleavage, the non-fluorescent bisamide substrate converted to the fluorescent R110, which can be quantified by fluorescence microplate reader using excitation at 485±10 nm and emission detection at 535±10 nm.
(§5) (12) (5 μM and 7.5 μM, respectively) for 5 or 16 hr. Both “induced” and “control” cells were then harvested and lysed. Enzyme reactions were performed in 96-well plates with 50 μg of cytosolic proteins (55 minutes of incubation) and with a final concentration of 25 μM Z-DEVD-R110 substrate as described in the kit protocol.

[3] = test system: caspase-3 in OV-1063 cells; assay: EnzChek Caspase-3 assay; assay type: cell-based, human
From the text: as §4, §5

C-26 cells [4] = settings: 5 hr, 4.5 μM
From the text: (§6) (1) By staining of the C-26 and OV-1063 cells with Merocyanine 540 (MC 540) (Molecular probes, Oregon, USA) and 4′, 6-diamidino-2-phenylindone dihydrochloride (DAPI) (Molecular probes, Oregon, USA). This assay is based on the observation that soon after the initiation of apoptosis, phosphatidylserine (PS) translocates from the inner face of the plasma membrane to the cell surface. At this point, PS can be easily detected by staining with MC 540, which has a strong affinity to PS^(25). Chromatin condensation was assessed by staining with DAPI, which preferentially stains double stranded DNA. In the following experiments samples containing 5*10^5 cells were cultured on 6-well plates covered with a glass coverslip. After treatment of cells with IC50 of the complexes, cells were washed with PBS and incubated for 2 min in the dark in 500 μl of PBS containing 2.5 μl of MC 540 (1 mg/ml). After that cells were washed with PBS, fixated with 4% formaldehyde and stained with 300 μl DAPI (3 μM). Thereafter, glass coverslip was placed on a glass slide and photographed using a fluorescence confocal microscope.
(§7) Apoptosis, also known as programmed cell death, is involved in the regulation of cell number in multicellular organism, and the pathogenesis of various diseases, including tumor progression, neurodegenerative disorders and viral infections. […]

OV-1063 cells [5] = settings: 5 hr, 6.5 μM
From the text: as §6, §7

C1CCNCC1.Cc1ccncc1.[Cl][Pt][Cl] [Complex 5, trans-[PtCl2(4-picoline)(piperidine)]]
resistance factor (IC50 resistant/IC50 sensitive) (41McisR; 41McisR/41M): 6.0 | IC50 (41McisR; 24 hours incubation, MTS): 210 µM | IC50 (41M): 35 ± 4 µM | IC50 (A2780cisR; 24 hours incubation, MTS): 135 ± 7 µM | resistance factor (IC50 resistant/IC50 sensitive) (A2780cisR; A2780cisR/A2780): 15 | IC50 (A2780): 9 ± 1 µM | IC50 (CH1cisR; 24 hours incubation, MTS): 169 ± 9 µM | resistance factor (IC50 resistant/IC50 sensitive) (CH1cisR; CH1cisR/CH1): (6.5) | IC50 (CH1): 26 ± 3 µM | Pt-DNA adducts (C-26 cells [1]; C-26, 24 hr): 51 pmol Pt/50 μg DNA | DNA platination relative to Cis-Pt (C-26 cells [1]; C-26 cells): the same | Pt-DNA adducts (OV-1063 cells [2]; OV-1063, 24 hr): 41 pmol Pt/50 μg DNA | DNA platination relative to Cis-Pt (OV-1063 cells [2]; OV-1063 cells): the same | % IEC/adduct, frequency of interstrand crosslinks (calf thymus DNA): 2% | unwinding angle per adduct (calf thymus DNA): 11° | t1/2 half time of the binding to calf thymus DNA (calf thymus DNA; 10 mM NaClO4, 37° C., ri = 0.08, differential pulse polarography): 4.33 h | ΔTm, 0.01M Na+ (calf thymus DNA; rb = 0.05, 0.01M Na+): +5.5 0.C | ΔTm, 0.2 M (calf thymus DNA; rb = 0.05, 0.2 M): +0.5 0.C | ΔΔεmax, maximum of the positive CD band at around 275 nm (calf thymus DNA; rb = 0.05, difference between control and platinated DNA): 0.04 | caspase-3 fluorescent signal (caspase-3 in C-26 cells): no fluorescent signal | caspase-3 activation, increase in fluorescence vs untreated cells ([3]; 5 hr, 6.5 μM piperidine complex or 7.5 μM piperazine complex): ~2 fold | caspase-3 activation, increase in fluorescence vs untreated cells ([3]; 16 hr): 3 fold | apoptosis by MC 540/DAPI staining (C-26 cells [4]): slightly red-fluorescent | apoptosis by MC 540/DAPI staining (OV-1063 cells [5]): large proportion of the OV-1063 cells appeared to be apoptotic
